In patent EP1211260A1, “Peptides from Ag85 of mycobacterium and uses thereof” (priority 2000, dated 2002):
pIC50: −log10 of the molar value. Read-outs that look alike come from different tables or passages of the source. Where a SMILES comes first, the peptide text is derived from it.

Biological target: Recombinant HLA-A*201 (Homo sapiens, UniProt P04439, D140Y/D185E/D98H/E176V/E277Q/G131W/G231S/I119V/I121R/I166T/I218V/L300P/L318F/N151K/N90K/P208A/P217A/Q86G/Q94H/R138H/R169H/T345S)
Assay: biochemical
Format: binding
Conditions: for IC50: 20°C, 48 h, standard peptide HBV core 47-56 (52->C), read-out: HLA-A2 Binding Affinity(IC50; µM)

Row | Compound | IC50 | pIC50
1 | CC(C)C[C@H](NC(=O)[C@H](Cc1ccc(O)cc1)NC(=O)[C@H](CCC(=O)O)NC(=O)[C@@H](NC(=O)[C@@H]1CCCN1C(=O)[C@H](CC(C)C)NC(=O)CN)C(C)C)C(=O)N[C@@H](CCC(N)=O)C(=O)N[C@H](C(=O)O)C(C)C [5-13] (H-GLPVEYLQV-OH) | 7 µM | 
2 | CC(C)C[C@H](NC(=O)CNC(=O)[C@H](CC(=O)O)NC(=O)[C@H](CC(C)C)NC(=O)[C@H](CC(C)C)NC(=O)[C@@H](N)Cc1ccc(O)cc1)C(=O)N[C@@H](CCCNC(=N)N)C(=O)N[C@@H](C)C(=O)O [37-44] (H-YLLDGLRA-OH) | 1.6 µM | 
3 | CC[C@H](C)[C@H](NC(=O)[C@H](CO)NC(=O)[C@H](CC(C)C)NC(=O)CN)C(=O)N[C@H](C(=O)N[C@@H](CCSC)C(=O)N1CCC[C@H]1C(=O)N[C@H](C(=O)O)C(C)C)C(C)C [65-72] (H-GLSIVMPV-OH) | 0.3 µM | 
4 | CC(C)C[C@H](NC(=O)[C@H](Cc1c[nH]c2ccccc12)NC(=O)[C@H](CCC(N)=O)NC(=O)[C@@H]1CCCN1C(=O)[C@H](CC(C)C)NC(=O)[C@H](CCC(=O)O)NC(=O)[C@H](CO)NC(=O)[C@@H](NC(=O)[C@H](CC(C)C)NC(=O)[C@@H](N)Cc1ccccc1)[C@@H](C)O)C(=O)O [100-109] (H-FLTSELPQWL-OH) | 0.7 µM | 
5 | CC(C)C[C@H](NC(=O)[C@H](Cc1c[nH]c2ccccc12)NC(=O)[C@H](CCC(N)=O)NC(=O)[C@@H]1CCCN1C(=O)[C@H](CC(C)C)NC(=O)[C@H](CCC(=O)O)NC(=O)[C@H](CO)NC(=O)[C@@H](NC(=O)[C@@H](N)CC(C)C)[C@@H](C)O)C(=O)O [101-109] (H-LTSELPQWL-OH) | 6 µM | 
6 | CC[C@H](C)[C@H](NC(=O)[C@H](CCSC)NC(=O)[C@H](C)NC(=O)[C@H](CO)NC(=O)[C@H](CO)NC(=O)CNC(=O)[C@H](C)NC(=O)[C@H](CCSC)NC(=O)[C@@H](N)CO)C(=O)O [126-134] (H-SMAGSSAMI-OH) |  | 5.77
7 | CC[C@H](C)[C@H](NC(=O)[C@H](CCSC)NC(=O)[C@H](C)NC(=O)[C@H](CO)NC(=O)[C@H](CO)NC(=O)CNC(=O)[C@H](C)NC(=O)[C@H](CCSC)NC(=O)[C@@H](N)CO)C(=O)N[C@@H](CC(C)C)C(=O)O [126-135] (H-SMAGSSAMIL-OH) | 0.5 µM | 
8 | CC[C@H](C)[C@H](NC(=O)[C@@H](N)Cc1ccccc1)C(=O)N[C@@H](Cc1ccc(O)cc1)C(=O)N[C@@H](C)C(=O)NCC(=O)N[C@@H](CO)C(=O)N[C@@H](CC(C)C)C(=O)N[C@@H](CO)C(=O)N[C@@H](C)C(=O)O [143-151] (H-FIYAGSLSA-OH) | 0.4 µM | 
9 | CC[C@H](C)[C@H](NC(=O)[C@@H](N)Cc1ccccc1)C(=O)N[C@@H](Cc1ccc(O)cc1)C(=O)N[C@@H](C)C(=O)NCC(=O)N[C@@H](CO)C(=O)N[C@@H](CC(C)C)C(=O)N[C@@H](CO)C(=O)N[C@@H](C)C(=O)N[C@@H](CC(C)C)C(=O)O [143-152, FIYAGSLSAL] (H-FIYAGSLSAL-OH) | 0.01 µM | 
10 | CC[C@H](C)[C@H](NC(=O)[C@H](CC(C)C)NC(=O)[C@H](CO)NC(=O)[C@@H]1CCCN1C(=O)CNC(=O)[C@H](CCSC)NC(=O)CN)C(=O)NCC(=O)N[C@@H](CC(C)C)C(=O)O [158-166] (H-GMGPSLIGL-OH) | 1.4 µM | 
11 | CC(C)C[C@H](NC(=O)[C@H](CCCNC(=N)N)NC(=O)[C@@H](NC(=O)[C@H](CC(N)=O)NC(=O)[C@H](CC(N)=O)NC(=O)[C@H](C)NC(=O)[C@@H](NC(=O)[C@H](CC(C)C)NC(=O)[C@@H](N)CCCCN)C(C)C)[C@@H](C)O)C(=O)O [199-207] (H-KLVANNTRL-OH) |  | 5.85
12 | CC(C)C[C@H](NC(=O)[C@H](CCCNC(=N)N)NC(=O)[C@@H](NC(=O)[C@H](CC(N)=O)NC(=O)[C@H](CC(N)=O)NC(=O)[C@H](C)NC(=O)[C@@H](NC(=O)[C@H](CC(C)C)NC(=O)[C@@H](N)CCCCN)C(C)C)[C@@H](C)O)C(=O)N[C@@H](Cc1c[nH]c2ccccc12)C(=O)N[C@H](C(=O)O)C(C)C [199-209] (H-KLVANNTRLWV-OH) | 0.6 µM | 
13 | CC(C)C[C@H](NC(=O)[C@@H](N)CCCNC(=N)N)C(=O)N[C@@H](Cc1c[nH]c2ccccc12)C(=O)N[C@H](C(=O)N[C@@H](Cc1ccc(O)cc1)C(=O)N[C@@H](CS)C(=O)NCC(=O)N[C@@H](CC(N)=O)C(=O)NCC(=O)N[C@H](C(=O)O)[C@@H](C)O)C(C)C [206-215] (H-RLWVYCGNGT-OH) | 2 µM | 
14 | CC(C)C[C@H](NC(=O)[C@H](CC(N)=O)NC(=O)[C@H](CO)NC(=O)[C@H](CO)NC(=O)[C@H](CCCNC(=N)N)NC(=O)[C@@H](NC(=O)[C@H](Cc1ccccc1)NC(=O)[C@H](CC(N)=O)NC(=O)[C@H](CCC(=O)O)NC(=O)[C@H](CC(C)C)NC(=O)[C@@H](N)Cc1ccccc1)C(C)C)C(=O)O [228-238] (H-FLENFVRSSNL-OH) | 1.2 µM | 
